# From patent EP0148096A1, “Diversely substituted 1-arylamino-3-amino-2-propanols, process for their preparation and their therapeutical application” (CORTIAL S.A., priority 1983, dated 1985)
# Read-outs that look alike come from different tables or passages of the source.
# What was measured:
# [1] = acute toxicity, oral administration, solution in Tween; conditions: mouse, in vivo, souris, voie orale; for mortality: solution dans le Tween, read-out: mortalité
# Method: (§1) La toxicité a été déterminée chez la souris. En solution dans le Tween et après administration par voie orale le COR37 05C entraine 0 % de mortalité à 500 mg/kg, 40 % à 750 et 40 % à 1000; le COR37 06C entraine 0 % de mortalité à 100 mg/kg, 10 % à 200, 10 % à 250, 90 % à 375, 100 % à 500 (DL50 = 294 mg/kg (261-332); les COR37 09C, COR37 49C et COR37 50C entrainent 0 % de mortalité à 300 mg/kg. En solution dans le Tween et après administration par voie intrapéritonéale le COR37 05C entraine 0 % de
# [2] = acute toxicity, intraperitoneal administration, solution in Tween; format: in vivo; conditions: mouse, in vivo, ip, souris, voie intrapéritonéale, solution dans le Tween, read-out: mortalité
# [3] = acute toxicity, intravenous administration; conditions: mouse, in vivo, souris, voie intraveineuse, limits (53,8 - 59,5), read-out: DL50 (the source's name)
# Method: as §1
# Par voie intraveineuse le COR37 05C présente une DL50 de 56,6 mg/kg (53,8 - 59,5).
# [4] = system: souris soumise à une anesthésie chloroformique profonde; test: antiarrhythmic activity, mouse under deep chloroform anaesthesia; format: in vivo; conditions: ip, read-out: dose active (activité antiarythmique)
# Method: L'activité antiarythmique a été déterminée sur plusieurs modèles expérimentaux. Dans le modèle de la souris soumise à une anesthésie chloroformique profonde le COR37 05C et le COR37 06C présentent après administration intrapéritonéale une activité antiarythmique dès la dose de 25 mg/kg; le COR37 50C est actif sur ce même modèle à 100 mg/kg. Le propranolol est actif dans les mêmes conditions à la dose de 40 mg/kg et la quinidine à la dose de 100 mg/kg.
# [5] = system: oreillette isolée de cobaye stimulée électriquement; test: antiarrhythmic activity in vitro, electrically stimulated isolated guinea pig atrium; format: cell-based; conditions: read-out: Ci30
# Source text: In vitro dans le modèle de l'oreillette isolée de cobaye stimulée électriquement le COR37 05C et le COR37 06C sont actifs avec des Ci30 de respectivement 6,22 (4,37-8,86) 10^-6 M/1 et 7,26.10^-6 (4,68.10^-6-1,12.10^-5) M/1 contre 10^-5 M/1 pour la procaïne, 4.10^-6 M/1 pour la quinidine et 4,5.10^-6 M/l pour le propranolol.
# [6] = system: arythmies induites par l'aconitine; test: aconitine-induced arrhythmias in the rat; format: in vivo; conditions: for pourcentage d'animaux ne présentant pas de fibrilloflutters: voie orale
# Method: Ces produits ont été testés dans le modèle des arythmies induites par l'aconitine chez le rat. Les résultats sont exprimés par le pourcentage d'augmentation de la quantité d'aconitine provoquant l'apparition d'extrasystoles (E), de fibrilloflutters (F), de tachycardies (T) et de morts (M). Administrés par voie intraveineuse 1 mn avant la perfusion d'aconitine, le COR37 05C entraine à 10 mg/kg 78 % (E), 87 % (T) et 83 % (M) d'activité et le COR37 06C à 5 mg/kg entraine 45 % (E), 39 % (T) et 79 % (M) d'activité. Administrés par voie orale 45 mn avant la perfusion d'aconitine à 100 mg/kg, le COR37 05C entraine 83 % (E), 99 % (T), 43 % (F) et 107 % (M) d'activité et le COR37 06C 25 % (E), 32 % (T), 29 % (F) et 105 % (M) d'activité. De plus le pourcentage d'animaux ne présentant pas de fibrilloflutters après administration de 100 mg/kg de COR37 05C et COR37 )6C par voie orale est respectivement de 70 et 60 %.
# [7] = system: cornée de cobaye; test: local anaesthetic activity, guinea pig cornea with tactile stimulus; format: in vivo; conditions: concentration de 0,5 %
# Source text: L'activité anesthésique locale a été déterminée dans le test de la cornée de cobaye soumise à un stimulus tactile. Le COR37 06C employé à la concentration de 0,5 % est actif pendant 30 mn.
# [8] = system: plasma riche en plaquettes (PRP) de lapin; test: platelet aggregation in vitro induced by bovine collagen in rabbit PRP; format: cell-based; conditions: 1 microg/ml, 0,05 ml de collagène bovin, read-out: inhibition de l'agrégation plaquettaire
# Method: (§2) L'activité antiagrégante plaquettaire a été déterminée in vitro. Quand l'agrégation est induite par 0,05 ml d'une préparation standardisée de collagène bovin dans un plasma riche en plaquettes (PRP) de lapin, le COR37 06C entraine 100 % d'inhibition à 1 microg/ml alors que l'aspirine dans les mêmes conditions est active à 10 microg/ml et l'indométacine à 0,5 microg/ml. Dans le modèle de l'agrégation plaquettaire induite par […] d'ADP dans un PRP de lapin, à 100 microg/ml, le COR37 09C entraine 79 % d'activité, le COR37 50C entraine 80 % d'activité et l'adénosine 64 %.
# [9] = system: PRP de lapin; test: platelet aggregation in vitro induced by ADP in rabbit PRP; format: cell-based; conditions: Oryctolagus cuniculus, 100 microg/ml, d'ADP, read-out: activité (agrégation plaquettaire induite par ADP)
# Method: as §2
# [10] = system: souris; test: acute toxicity, intraperitoneal administration, solution in Tween; format: in vivo; conditions: voie intrapéritonéale, 200 mg/kg, solution dans le Tween
# [11] = system: oreillette gauche de cobaye; test: calcium-antagonist activity in vitro, electrically stimulated guinea pig left atrium in low-calcium Tyrode; format: cell-based; conditions: 100 Microg/ml; 150 battements/mn, Tyrode pauvre en calcium (0,6mM), addition de 0,6 mM de calcium
# Method: L'activité anticalcique a été déterminée in vitro sur oreillette gauche de cobaye stimulée électriquement à 150 battements/mn dans une solution de Tyrode pauvre en calcium (0,6mM).
# [12] = system: souris rendue hypercholestérolémique; test: hypolipidaemic activity, hypercholesterolaemic mouse (cholesterol and cholic acid diet, 7 days); format: in vivo; conditions: voie orale le 6e et le 7e jour, 400 mg/kg
# Method: L'activité hypolipidémiante a été mise en évidence chez la souris rendue hypercholestérolémique par un régime riche en cholestérol et acide cholique pendant 7 jours. Ainsi l'administration par voie orale du COR37 49C le 6e et le 7e jour, entraine une diminution du cholestérol sérique de 22 % à la dose de 400 mg/kg.
# [13] = system: rat en surcharge hydrique; test: diuretic activity, water-loaded rat; format: in vivo; conditions: dose orale de 20 mg/kg, fold factor
# Method: L'activité diurétique a été déterminée chez le rat. Ainsi le COR37 49C administré au rat en surcharge hydrique à la dose orale de 20 mg/kg multiplie par 2,2 l'excrétion urinaire de sodium.
# [14] = target: T1, H2 (Cavia porcellus, UniProt P47747); test: anti-H2 antihistaminic activity in vitro, unstimulated guinea pig right atrium; format: cell-based; conditions: 25 microg/ml; 5 microg/ml d'histamine, oreillette droite de cobaye non stimulée; read-out: inhibition de l'effet chronotrope induit par l'histamine
# T1 construct: sur l'oreillette droite de cobaye non stimulée; from tissue; host or cells: guinea pig right atrium, unstimulated
# T1 sequence (P47747 whole entry): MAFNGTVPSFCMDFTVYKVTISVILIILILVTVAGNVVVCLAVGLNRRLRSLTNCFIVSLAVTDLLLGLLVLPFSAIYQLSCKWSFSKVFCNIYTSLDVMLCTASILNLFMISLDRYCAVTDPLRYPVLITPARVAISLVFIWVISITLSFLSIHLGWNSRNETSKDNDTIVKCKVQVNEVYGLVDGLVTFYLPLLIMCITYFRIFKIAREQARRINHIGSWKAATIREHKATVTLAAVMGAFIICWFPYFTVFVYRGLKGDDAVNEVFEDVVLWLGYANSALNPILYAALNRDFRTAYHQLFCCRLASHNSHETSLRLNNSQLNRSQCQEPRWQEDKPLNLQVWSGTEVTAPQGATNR
# Source text: L'activité antihistaminique antiH2 a été mise en évidence in vitro. A la concentration de 25 microg/ml le COR37 49C inhibe à 50 % l'effet chronotrope induit par 5 microg/ml d'histamine sur l'oreillette droite de cobaye non stimulée.
# [15] = target: T2, Hl (Cavia porcellus, UniProt P31389); test: anti-H1 antihistaminic activity in vitro, guinea pig ileum; format: cell-based; conditions: 25 microg/ml; iléon de cobaye; read-out: inhibition des contractions induites par l'histamine
# T2 construct: in vitro sur iléon de cobaye; from tissue; host or cells: guinea pig ileum
# T2 sequence (P31389 whole entry): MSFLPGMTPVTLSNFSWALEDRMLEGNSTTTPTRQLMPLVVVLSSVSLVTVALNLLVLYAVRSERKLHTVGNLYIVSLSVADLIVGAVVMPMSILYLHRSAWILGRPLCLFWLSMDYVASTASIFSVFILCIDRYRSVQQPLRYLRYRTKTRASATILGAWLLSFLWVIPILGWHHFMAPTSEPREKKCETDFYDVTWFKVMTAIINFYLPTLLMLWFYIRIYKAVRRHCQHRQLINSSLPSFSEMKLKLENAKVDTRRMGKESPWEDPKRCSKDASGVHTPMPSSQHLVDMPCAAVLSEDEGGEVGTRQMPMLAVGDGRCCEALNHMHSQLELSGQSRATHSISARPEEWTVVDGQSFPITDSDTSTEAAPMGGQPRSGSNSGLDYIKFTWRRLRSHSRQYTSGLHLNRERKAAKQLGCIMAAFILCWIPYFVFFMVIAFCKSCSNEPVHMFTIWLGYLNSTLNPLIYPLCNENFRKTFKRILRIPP
# Source text: L'activité antihistaminique antiHl a été mise en évidence in vitro sur iléon de cobaye. Le COR37 49C employé à la concentration de 25 microg/ml inhibe à 80 % les contractions induites par l'histamine.
# [16] = souris, anesthésie chloroformique profonde, administration intrapéritonéale
# [17] = oreillette isolée de cobaye stimulée électriquement, in vitro
# [18] = voie intraveineuse 1 mn avant la perfusion d'aconitine, 10 mg/kg
# [19] = voie orale 45 mn avant la perfusion d'aconitine, 100 mg/kg
# [20] = voie intraveineuse 1 mn avant la perfusion d'aconitine, 5 mg/kg
structure (smiles),measurement,setting,value
"CC(C)c1ccccc1NCC(O)CNC(C)(C)C (stereo not drawn) [COR37 05C, Dichlorhydrate de l'(isopropyl-2 anilino)-1 tertiobutylamino-3 propanol-2]",mortality,[1]; 500 mg/kg,0%
same,mortality,[1]; 750 mg/kg,40%
same,mortality,[1]; 1000 mg/kg,40%
same,mortality,[2]; 200 mg/kg,0%
same,LD50,[3],56.6 mg/kg
same,minimal effective dose,[4]; [16],25 mg/kg
same,IC30,[5]; [17],6.22 µM
same,pourcentage d'augmentation de la quantité d'aconitine provoquant l'apparition d'extrasystoles (E),[6]; [18],78%
same,pourcentage d'augmentation de la quantité d'aconitine provoquant l'apparition de morts (M),[6]; [18],83%
same,pourcentage d'augmentation de la quantité d'aconitine provoquant l'apparition de tachycardies (T),[6]; [18],87%
same,pourcentage d'augmentation de la quantité d'aconitine provoquant l'apparition d'extrasystoles (E),[6]; [19],83%
same,pourcentage d'augmentation de la quantité d'aconitine provoquant l'apparition de fibrilloflutters (F),[6]; [19],43%
same,pourcentage d'augmentation de la quantité d'aconitine provoquant l'apparition de morts (M),[6]; [19],107%
same,pourcentage d'augmentation de la quantité d'aconitine provoquant l'apparition de tachycardies (T),[6]; [19],99%
same,pourcentage d'animaux ne présentant pas de fibrilloflutters,[6]; 100 mg/kg,70%
"Cc1cccc(C(C)C)c1NCC(O)CNC(C)(C)C (stereo not drawn) [COR37 06C, Dichlorhydrate de l'(isopropyl-2 méthyl-6 anilino)-1 tertiobutylamino-3 propanol-2]",mortality,[1]; 100 mg/kg,0%
same,mortality,[1]; 200 mg/kg,10%
same,mortality,[1]; 250 mg/kg,10%
same,mortality,[1]; 375 mg/kg,90%
same,mortality,[1]; 500 mg/kg,100%
same,LD50,"[1]; limits (261-332), read-out: DL50 (the source's name)",294 mg/kg
same,mortality,[2]; 100 mg/kg,0%
same,mortality,[2]; 200 mg/kg,100%
same,minimal effective dose,[4]; [16],25 mg/kg
same,IC30,[5]; [17],7.26 µM
same,pourcentage d'augmentation de la quantité d'aconitine provoquant l'apparition d'extrasystoles (E),[6]; [20],45%
same,pourcentage d'augmentation de la quantité d'aconitine provoquant l'apparition de morts (M),[6]; [20],79%
same,pourcentage d'augmentation de la quantité d'aconitine provoquant l'apparition de tachycardies (T),[6]; [20],39%
same,pourcentage d'augmentation de la quantité d'aconitine provoquant l'apparition d'extrasystoles (E),[6]; [19],25%
same,pourcentage d'augmentation de la quantité d'aconitine provoquant l'apparition de fibrilloflutters (F),[6]; [19],29%
same,pourcentage d'augmentation de la quantité d'aconitine provoquant l'apparition de morts (M),[6]; [19],105%
same,pourcentage d'augmentation de la quantité d'aconitine provoquant l'apparition de tachycardies (T),[6]; [19],32%
same,pourcentage d'animaux ne présentant pas de fibrilloflutters,[6]; 100 mg/kg,60%
same,durée d'activité anesthésique locale,[7],30 mn
same,inhibition at 1 µg/mL,[8],100%
"Cc1ccc(NCC(O)CNC(C)(C)C)cc1 (stereo not drawn) [COR37 09C, Dichlorhydrate du (méthyl-4 anilino)-1 tertiobutylamino-3 propanol-2]",mortality,[1]; 300 mg/kg,0%
same,mortality,[2]; 50 mg/kg,0%
same,mortality,[2]; 100 mg/kg,100%
same,inhibition at 100 µg/mL,[9],79%
"CC(C)c1ccccc1NCC(O)CN(C)C (stereo not drawn) [COR37 49C, Dichlorhydrate de l'(isopropyl-2 anilino)-l diméthylamino-3 propanol-2]",mortality,[1]; 300 mg/kg,0%
same,mortalité,[10],aucune mortalité
same,activité anticalcique,[11],inhibent l'augmentation de la force contractile
same,diminution du cholestérol sérique,[12],22%
same,multiplication de l'excrétion urinaire de sodium,[13],"2,2"
same,inhibition at 25 µg/mL,[14],50%
same,inhibition at 25 µg/mL,[15],80%
"Cc1cccc(C(C)C)c1NCC(O)CN(C)C (stereo not drawn) [COR37 50C, Dichlorhydrate de l' (isopropyl-2 méthyl-6 anilino)-1 diméthylamino-3 propanol-2]",mortality,[1]; 300 mg/kg,0%
same,mortalité,[10],aucune mortalité
same,minimal effective dose,[4]; [16],100 mg/kg
same,inhibition at 100 µg/mL,[9],80%
same,activité anticalcique,[11],inhibent l'augmentation de la force contractile
"Nc1ncnc2c1ncn2[C@@H]1O[C@H](CO)[C@@H](O)[C@H]1O [adénosine, reference compound]",inhibition at 100 µg/mL,[9],64%
CCN(CC)CCOC(=O)c1ccc(N)cc1 [procaïne],IC30,[5]; [17],10 µM
"CC(C)NCC(O)COc1cccc2ccccc12 (stereo not drawn) [propranolol, reference compound]",minimal effective dose,[4],40 mg/kg
same,IC30,[5],4.5 µM
"C=C[C@H]1C[N@@]2CC[C@H]1C[C@@H]2[C@@H](O)c1ccnc2ccc(OC)cc12 [quinidine, reference compound]",minimal effective dose,[4],100 mg/kg
same,IC30,[5],4 µM
